Data from the NIST ThermoML archive (doi:10.1016/j.jct.2015.09.036).
Numbers after ± are expanded uncertainties.

How the values were obtained:
[1] = 303.15 K, 100 kPa, Liquid; for viscosity: Capillary tube (Ostwald / Ubbelohde) method; for speed of sound: Frequency=2 MHz, Linear variable-path acoustic interferometer; for mass density: Pycnometric method
[2] = xn = mol fraction of the nth substance listed; settings: 303.15 K, 100 kPa, Liquid; for viscosity: Capillary tube (Ostwald / Ubbelohde) method; for speed of sound: Frequency=2 MHz, Linear variable-path acoustic interferometer; for mass density: Pycnometric method

Clc1ccccc1 [chlorobenzene]
[1]
Settings | mass density [kg/m3] | speed of sound [m/s] | viscosity [mPa·s]
– | 1095.2 ± 4 | 1251.8 ± 2.1 | 0.724 ± 0.03

CCCCC(CC)COP(=O)(O)OCC(CC)CCCC (configuration not stated) [bis(2-ethylhexyl) hydrogen phosphate] + Clc1ccccc1
[2]
Settings | mass density [kg/m3] | speed of sound [m/s] | viscosity [mPa·s]
x1 = 0.0568 | 1075.2 ± 4 | 1253.2 ± 2.2 | 0.917 ± 0.038
x1 = 0.1474 | 1051.9 ± 4 | 1255.5 ± 2.2 | 1.535 ± 0.063
x1 = 0.2143 | 1038.4 ± 4.1 | 1257.7 ± 2.2 | 1.859 ± 0.076
x1 = 0.3498 | 1017.9 ± 4.1 | 1262.8 ± 2.3 | 2.804 ± 0.12
x1 = 0.4357 | 1007.6 ± 4.1 | 1266.4 ± 2.4 | 3.777 ± 0.16
x1 = 0.4788 | 1002.9 ± 4.1 | 1268.4 ± 2.4 | 4.502 ± 0.19
x1 = 0.5322 | 997.1 ± 4.1 | 1270.8 ± 2.4 | 5.526 ± 0.23
x1 = 0.6285 | 987.8 ± 4.1 | 1275.4 ± 2.5 | 7.879 ± 0.33
x1 = 0.7146 | 980.4 ± 4.1 | 1279.5 ± 2.6 | 10.49 ± 0.44
x1 = 0.7704 | 975.8 ± 4.1 | 1282.2 ± 2.6 | 12.21 ± 0.52
x1 = 0.8433 | 970.4 ± 4.1 | 1285.7 ± 2.6 | 14.56 ± 0.62
x1 = 0.8789 | 968 ± 4.1 | 1287.3 ± 2.7 | 15.86 ± 0.68
x1 = 0.9501 | 963.8 ± 4.1 | 1290.8 ± 2.7 | 17.84 ± 0.77
x1 = 1 | 961.3 ± 4.1 | 1293 ± 2.8 | 19.29 ± 0.83

Cc1ccccc1 [toluene]
[1]
Settings | mass density [kg/m3] | speed of sound [m/s] | viscosity [mPa·s]
– | 856.2 ± 4 | 1282.6 ± 2.1 | 0.528 ± 0.022

CCCCC(CC)COP(=O)(O)OCC(CC)CCCC (configuration not stated) [bis(2-ethylhexyl) hydrogen phosphate]
[1]
Settings | mass density [kg/m3] | speed of sound [m/s] | viscosity [mPa·s]
– | 961.3 ± 4.1 | 1293 ± 2.8 | 19.29 ± 0.83

O=[N+]([O-])c1ccccc1 [nitrobenzene] + CCCCC(CC)COP(=O)(O)OCC(CC)CCCC
[2], x2 = 0
Settings | mass density [kg/m3] | speed of sound [m/s] | viscosity [mPa·s]
– | 1193.6 ± 4.1 | 1445.6 ± 2.2 | 1.611 ± 0.066

CCCCC(CC)COP(=O)(O)OCC(CC)CCCC (configuration not stated) [bis(2-ethylhexyl) hydrogen phosphate] + Cc1ccccc1
[2]
Settings | mass density [kg/m3] | speed of sound [m/s] | viscosity [mPa·s]
x1 = 0.0896 | 884.9 ± 4 | 1283.7 ± 2.2 | 0.722 ± 0.03
x1 = 0.1624 | 902.1 ± 4 | 1284.5 ± 2.2 | 0.907 ± 0.037
x1 = 0.2077 | 910.5 ± 4 | 1285.1 ± 2.2 | 1.086 ± 0.045
x1 = 0.2898 | 923.1 ± 4 | 1286 ± 2.3 | 1.576 ± 0.065
x1 = 0.3279 | 928.8 ± 4 | 1286.6 ± 2.3 | 1.914 ± 0.079
x1 = 0.4205 | 937.6 ± 4 | 1287.4 ± 2.4 | 3.098 ± 0.13
x1 = 0.5082 | 944.5 ± 4.1 | 1288.2 ± 2.4 | 4.679 ± 0.19
x1 = 0.5903 | 949.3 ± 4.1 | 1289 ± 2.5 | 6.432 ± 0.27
x1 = 0.6814 | 953.3 ± 4.1 | 1289.9 ± 2.5 | 8.931 ± 0.38
x1 = 0.7388 | 955.2 ± 4.1 | 1290.5 ± 2.6 | 10.84 ± 0.46
x1 = 0.8105 | 957.1 ± 4.1 | 1291.2 ± 2.6 | 13.17 ± 0.56
x1 = 0.8876 | 958.8 ± 4.1 | 1291.9 ± 2.7 | 15.68 ± 0.67
x1 = 0.9427 | 960.1 ± 4.1 | 1292.5 ± 2.7 | 17.43 ± 0.75
x1 = 1 | 961.3 ± 4.1 | 1293 ± 2.8 | 19.29 ± 0.83

Clc1ccccc1 [chlorobenzene] + CCCCC(CC)COP(=O)(O)OCC(CC)CCCC
[2], x2 = 0
Settings | mass density [kg/m3] | speed of sound [m/s] | viscosity [mPa·s]
– | 1095.2 ± 4 | 1251.8 ± 2.1 | 0.724 ± 0.03

O=[N+]([O-])c1ccccc1 [nitrobenzene]
[1]
Settings | mass density [kg/m3] | speed of sound [m/s] | viscosity [mPa·s]
– | 1193.6 ± 4.1 | 1445.6 ± 2.2 | 1.611 ± 0.066

CCCCC(CC)COP(=O)(O)OCC(CC)CCCC (configuration not stated) [bis(2-ethylhexyl) hydrogen phosphate] + O=[N+]([O-])c1ccccc1
[2]
Settings | mass density [kg/m3] | speed of sound [m/s] | viscosity [mPa·s]
x1 = 0.0912 | 1139 ± 4.1 | 1429.5 ± 2.2 | 2.409 ± 0.099
x1 = 0.1743 | 1104.1 ± 4.1 | 1415.6 ± 2.3 | 2.925 ± 0.12
x1 = 0.2624 | 1075.4 ± 4.1 | 1401.5 ± 2.3 | 3.319 ± 0.14
x1 = 0.3698 | 1048.6 ± 4.1 | 1385.2 ± 2.4 | 4.274 ± 0.18
x1 = 0.4211 | 1038.1 ± 4.1 | 1377.5 ± 2.4 | 4.689 ± 0.19
x1 = 0.4779 | 1027.1 ± 4.1 | 1369.1 ± 2.4 | 5.585 ± 0.23
x1 = 0.5326 | 1017.4 ± 4.1 | 1361.1 ± 2.5 | 6.687 ± 0.28
x1 = 0.6102 | 1004.6 ± 4.1 | 1349.8 ± 2.5 | 8.662 ± 0.36
x1 = 0.6933 | 992.8 ± 4.1 | 1337.6 ± 2.6 | 10.95 ± 0.46
x1 = 0.7299 | 988.1 ± 4.1 | 1332.2 ± 2.6 | 11.91 ± 0.5
x1 = 0.7867 | 981.4 ± 4.1 | 1323.9 ± 2.6 | 13.51 ± 0.57
x1 = 0.8598 | 973.6 ± 4.1 | 1313.2 ± 2.7 | 15.51 ± 0.66
x1 = 0.9387 | 966.2 ± 4.1 | 1301.9 ± 2.7 | 17.75 ± 0.76
x1 = 1 | 961.3 ± 4.1 | 1293 ± 2.8 | 19.29 ± 0.83

Cc1ccccc1 [toluene] + CCCCC(CC)COP(=O)(O)OCC(CC)CCCC
[2], x2 = 0
Settings | mass density [kg/m3] | speed of sound [m/s] | viscosity [mPa·s]
– | 856.2 ± 4 | 1282.6 ± 2.1 | 0.528 ± 0.022
